Tests used:
[1] = system: MiaPaCa Human Pancreatic Tumor Xenograft; assay: Troxacitabine ± Gemcitabine vs. MiaPaCa human pancreatic tumor xenograft; conditions: for # of Toxic Deaths / Mice with Complete Shrinkage / Mice with Partial Shrinkage: n 10
Protocol: (§1) Female nude mice weighing approximately 20 g were implanted s.c. by trocar with fragments of human tumor harvested from s.c. growing tumors in nude mice hosts. When the tumors were approximately 58mg in size (12 days following inoculation), the animals were pair-matched into treatment and control groups. Each group contained 10 mice, each of which was ear-tagged and followed individually throughout the experiment. Initial doses were given on Day 1 following pair matching. […] Gemcitabine (Eli Lilly, Lot# 4MT16M) was administered intraperitoneally at 40 mg/kg and 80 mg/kg on a q3d×4 schedule.
(§2) Mice were weighed twice weekly, and tumor measurements were taken by calipers twice weekly, starting on Day 1. These tumor measurements were converted to mg tumor weight by a well-known formula, (W^2×L)/2. The experiment was terminated when the control group tumor size reached an average of 1 gram. Upon termination, the mice were weighed, sacrificed and their tumors were excised. The tumors were weighed, and the mean tumor weight per group was calculated.
(§3) Some drugs may cause tumor shrinkage in these tumor enograft models. With these agents, the final weight of a given tumor is subtracted from its own weight at the start of treatment on Day 1. This difference, divided by the initial tumor weight, is converted to percent shrinkage. The mean percent tumor shrinkage can be calculated from data from the mice in a group that experienced tumor regressions. If the tumor completely disappears in a mouse, it is considered a complete regression or complete tumor shrinkage.

[2] = system: Panc-01 Human Pancreatic Tumor Xenograft; assay: Troxacitabine ± Gemcitabine vs. Panc-01 human pancreatic tumor xenograft; conditions: for Deaths / Mice with Complete Shrinkage / Mice with Partial Shrinkage: n = 10
Protocol: as §1, §2, §3

[3] = system: patients with refractory/relapsed leukemia; assay: β-L OddC alone in patients with refractory/relapsed leukemia; assay type: in vivo, human; conditions: single agent; 16 evaluable AML patients
Protocol: A study was conducted to investigate the activity of β-L OddC as a single agent in patients with refractory/relapsed leukemia. The study involved the treatment of patients with refractory or relapsed acute myeloid (AML) or lymphocytic (ALL) leukemia, myelodysplastic syndromes (MDS), or chronic myelogenous leukemia in blastic Phase (CML-BP). A total of 42 patients were treated in the study. As a result, a total of 39 patients were assessable for responses.

CCRF-CEM cells = assay: MTT assay with CalcuSyn median-effect analysis, Troxacitabine/araC on CCRF-CEM cells; assay type: cell-based
Excerpt: The absorbance at 490 nm is directly proportional to the number of living cells in culture at a certain time point. […] Enz. Regulation 22, 1984, pp.27-55. […] Combinations of drugs were then generated around the IC50's of each drug to allow a constant ratio in order to determine if the combination was additive, synergistic or antagonistic. […] A CI below 1 is an indication of synergy, while a CI equal to 1 represents additivity, and a CI above 1 indicates antagonism.

[4] = Determination of maximum tolerated dose (MTD) in non-tumored mice; assay type: in vivo; conditions: i.v. qd×5 schedule

Compound: Nc1ccn([C@@H]2O[C@H](CO)[C@@H](O)C2(F)F)c(=O)n1 [Gemcitabine, reference compound]
- % Tumor Growth Inhibition ([1]; 40 mg/kg i.p., q3d × 4): 37.3%
- Final Tumor Wt. (Mean ± SEM) ([1]; 40 mg/kg i.p., q3d × 4): 733.0 ± 98.7 mg
- # of Toxic Deaths ([1]; 40 mg/kg i.p., q3d × 4): 0
- Mice with Complete Shrinkage ([1]; 40 mg/kg i.p., q3d × 4): 0
- Mice with Partial Shrinkage ([1]; 40 mg/kg i.p., q3d × 4): 0
- % Tumor Growth Inhibition ([1]; 80 mg/kg i.p., q3d × 4): 53.6%
- Final Tumor Wt. (Mean ± SEM) ([1]; 80 mg/kg i.p., q3d × 4): 553.8 ± 124.3 mg
- # of Toxic Deaths ([1]; 80 mg/kg i.p., q3d × 4): 1
- Mice with Complete Shrinkage ([1]; 80 mg/kg i.p., q3d × 4): 0
- Mice with Partial Shrinkage ([1]; 80 mg/kg i.p., q3d × 4): 0
- % Tumor Growth Inhibition ([2]; 40 mg/kg i.p., q3d × 4): 49.8%
- Final Tumor Wt. (Mean ± SEM) ([2]; 40 mg/kg i.p., q3d × 4): 457.8 ± 113.9 mg
- Deaths ([2]; 40 mg/kg i.p., q3d × 4): 0
- Mice with Complete Shrinkage ([2]; 40 mg/kg i.p., q3d × 4): 0
- Mice with Partial Shrinkage ([2]; 40 mg/kg i.p., q3d × 4): 0
- % Tumor Growth Inhibition ([2]; 80 mg/kg i.p., q3d × 4): 74.3%
- Final Tumor Wt. (Mean ± SEM) ([2]; 80 mg/kg i.p., q3d × 4): 262.2 ± 67.7 mg
- Deaths ([2]; 80 mg/kg i.p., q3d × 4): 0
- Mice with Complete Shrinkage ([2]; 80 mg/kg i.p., q3d × 4): 0
- Mice with Partial Shrinkage ([2]; 80 mg/kg i.p., q3d × 4): 0

Compound: Nc1ccn([C@@H]2CO[C@H](CO)O2)c(=O)n1 [Troxacitabine, (−)-β-L-Dioxolane-Cytidine]
- complete remissions [3]: 2
- partial remissions [3]: 1
- remission rate (complete + partial) [3]: 18%
- % Toxicity (CCRF-CEM cells; Troxacitabine 20 nM, 72 h continuous exposure): 0%
- % Toxicity (CCRF-CEM cells; Troxacitabine 31 nM, 2 h exposure, MTT at 72 hr): 3 ± 3%
- % Toxicity (CCRF-CEM cells; Troxacitabine 62 nM, 2 h exposure, MTT at 72 hr): 12 ± 7%
- % Toxicity (CCRF-CEM cells; Troxacitabine 100 nM, 72 h continuous exposure): 28 ± 5%
- % Toxicity (CCRF-CEM cells; Troxacitabine 125 nM, 2 h exposure, MTT at 72 hr): 11 ± 2%
- % Toxicity (CCRF-CEM cells; Troxacitabine 250 nM, 2 h exposure, MTT at 72 hr): 24 ± 3%
- % Toxicity (CCRF-CEM cells; Troxacitabine 500 nM, 2 h exposure, MTT at 72 hr): 34 ± 6%
- % Toxicity (CCRF-CEM cells; Troxacitabine 500 nM, 72 h continuous exposure): 65 ± 2%
- % Toxicity (CCRF-CEM cells; Troxacitabine 2500 nM, 72 h continuous exposure): 90 ± 2%
- % Toxicity (CCRF-CEM cells; Troxacitabine 12500 nM, 72 h continuous exposure): 98 ± 1%
- % Tumor Growth Inhibition ([1]; 10 mg/kg i.v., qd × 5): 23.9%
- Final Tumor Wt. (Mean ± SEM) ([1]; 10 mg/kg i.v., qd × 5): 872.7 ± 171.1 mg
- # of Toxic Deaths ([1]; 10 mg/kg i.v., qd × 5): 3
- Mice with Complete Shrinkage ([1]; 10 mg/kg i.v., qd × 5): 0
- Mice with Partial Shrinkage ([1]; 10 mg/kg i.v., qd × 5): 0
- % Tumor Growth Inhibition ([1]; 25 mg/kg i.v., qd × 5): 29.7%
- Final Tumor Wt. (Mean ± SEM) ([1]; 25 mg/kg i.v., qd × 5): 813.4 ± 57.9 mg
- # of Toxic Deaths ([1]; 25 mg/kg i.v., qd × 5): 0
- Mice with Complete Shrinkage ([1]; 25 mg/kg i.v., qd × 5): 0
- Mice with Partial Shrinkage ([1]; 25 mg/kg i.v., qd × 5): 0
- Final Tumor Wt. (Mean ± SEM) ([2]; 10 mg/kg i.v., qd × 5): 11.1 ± 2.1 mg
- Mean % Tumor Shrinkage ([2]; 10 mg/kg i.v., qd × 5): 77.5%
- Deaths ([2]; 10 mg/kg i.v., qd × 5): 0
- Mice with Complete Shrinkage ([2]; 10 mg/kg i.v., qd × 5): 1
- Mice with Partial Shrinkage ([2]; 10 mg/kg i.v., qd × 5): 9
- Final Tumor Wt. (Mean ± SEM) ([2]; 25 mg/kg i.v., qd × 5): 12.5 ± 1.9 mg
- Mean % Tumor Shrinkage ([2]; 25 mg/kg i.v., qd × 5): 72.6%
- Deaths ([2]; 25 mg/kg i.v., qd × 5): 0
- Mice with Complete Shrinkage ([2]; 25 mg/kg i.v., qd × 5): 1
- Mice with Partial Shrinkage ([2]; 25 mg/kg i.v., qd × 5): 9
- maximum tolerated dose [4]: greater than 25 mg/kg
